According to patent US20240024403A1, “Compositions and Methods for Managing Weight” (Unigen, Inc., priority 2012, published 2024):

Assay: High fat diet induced obesity (DIO) mouse model
Format: in vivo, C57CL/6J mice
Parameters: Epididymal Fat weight / Retroperitoneal Fat weight / Total Fat (sum of the three fat deposits) / Retroperitoneal Fat / Total Fat / Epididymal Fat, absolute weight / Retroperitoneal Fat, absolute weight: unit not given here
Settings: DIO mice; for FER (Food efficiency ratio): FER = body weight gain/food intake; for Hepatocellular ballooning (0-2) / Lobular Inflammation (0-3) / NSAH (sum) / Steatosis (0-3): liver pathology score; for Total Fat: sum of the three fat pads
Experimental: C57CL/6J mice aged 4-6 weeks (Korea Research Institute of Bioscience & Biotechnology, Ohchang, Korea) were housed in Polycarbonate cages (five mice per cage) in a room with a 12 hr:12 hr light-dark cycle and an ambient temperature of 24° C. All the mice were fed a commercial chow diet for 1 week after arrival in the animal facility. Mice were then divided into normal and obesity groups and fed with normal diet (ND) and high fat diets (HFD) respectively. The HFD group was divided into multiple treatment groups: a high fat diet vehicle group (HFD), an orlistat (purchased as OTC drug Alli®) positive control treatment group (ORI, 40 mg/kg of animal weight, 2 times/day) and optionally a sibutramine positive control treatment group (10 mg/kg, 1 time/day). The HFD contained 340 g of fat/kg of HFD (310 g lard plus 30 g soybean oil; Harlan Laboratories, USA). The HFD was formulated to provide 60% of the total energy generated by the diet from fat by replacing carbohydrate energy with lard and soybean oil, whereas the normal diet (ND) group was fed a diet providing only 18% of the total diet energy from fat(Harlan Laboratories, USA).
Body weight was measured once each week and feed intake was measured twice per week. At the end of the experimental period, following a 12 hr. fasting period, the animals were anesthetized with ether, and blood was drawn from the abdominal vein. Liver and kidney and adipose tissues (epididymal, retroperitoneal, perirenal adipose tissues) were removed from each animal, rinsed with physiological saline, and weighed. Serum concentrations of glucose, total cholesterol, triglycerides, and LDL-cholesterol were determined using automatic analyzer (INTEGRA 400, Roche, Germany). Statistical significance of test results was measured using the Student's t-test.

[1] = SIB 10 mg/kg, ORI 40 mg/kg, Mutamba extract 32 (G1) 1000 mg/kg, mean
[2] = SIB 10 mg/kg, ORI 40 mg/kg, Mutamba extract 33-2 G1 1000 mg/kg, mean
[3] = combination (1:1) 2000 mg/kg twice a day, group mean
[4] = combination (5:1) 1200 mg/kg twice a day by gavage, group mean
[5] = combination (5:1) 1200 mg/kg twice a day, biochemistry parameters, Table 85, first print
[6] = combination (5:1) 1200 mg/kg twice a day, biochemistry parameters, Table 85, second print
[7] = combination (10:1) 1100 mg/kg twice a day, biochemistry parameter
[8] = combination (10:1) 1100 mg/kg twice a day, group mean
[9] = plasma, Mean, G1 1,300 mg/kg twice a day

SMILES: CCCCCCCCCCC[C@@H](C[C@@H]1OC(=O)[C@H]1CCCCCC)OC(=O)[C@H](CC(C)C)NC=O [ORI, orlistat]
- Glu (ORI group, mean, Table 137): 194.00 mg/dL
- HDL-C (ORI group, mean, Table 137): 62.42 mg/dL
- LDL-C (ORI group, mean, Table 137): 4.03 mg/dL
- T-chol (ORI group, mean, Table 137): 137.33 mg/dL
- TG (ORI group, mean, Table 137): 27.83 mg/dL
- Epididymal Fat, absolute weight (ORI group, mean, Table 138): 2.08
- Liver, absolute organ weight (ORI group, mean, Table 138): 0.99 g
- Perirenal Fat, absolute weight (ORI group, mean, Table 138): 0.28
- Retroperitoneal Fat, absolute weight (ORI group, mean, Table 138): 0.57
- Total Fat (sum of the three fat pads) (ORI group, mean, Table 138): 2.94
- Average Body Weight Gain [1]: 0.038 g/day
- Average Food Intake [1]: 2.826 g/day
- Body Weight Gain [2]: 0.093 g/day
- Food Intake [2]: 2.769 g/day
- FER (Food efficiency ratio) (combination (1:1) 2000 mg/kg twice a day): 0.000
- Food Intake [3]: 3.961 g/day
- Weight Gain [3]: -0.002 g/day
- FER (Food efficiency ratio) (combination (5:1) 1200 mg/kg twice a day by gavage): 0.000
- Food Intake [4]: 3.961 g/day
- Weight Gain [4]: -0.002 g/day
- Glu [5]: 225.50 mg/dL
- LDL-C [5]: 3.30 mg/dL
- T-chol [5]: 134.00 mg/dL
- TG [5]: 62.50 mg/dL
- Glu [6]: 225.50 mg/dL
- LDL-C [6]: 3.30 mg/dL
- T-chol [6]: 134.00 mg/dL
- TG [6]: 62.50 mg/dL
- FER (Food efficiency ratio) (combination (10:1) 1100 mg/kg twice a day): 0.000
- Glu [7]: 225.50 mg/dL
- T-chol [7]: 134.00 mg/dL
- TG [7]: 62.50 mg/dL
- Food Intake [8]: 3.961 g/day
- Weight Gain [8]: -0.002 g/day
- Hepatocellular ballooning (0-2) (ORI group, mean, Table 139): 0.67
- Lobular Inflammation (0-3) (ORI group, mean, Table 139): 1.33
- NSAH (sum) (ORI group, mean, Table 139): 2.67
- Steatosis (0-3) (ORI group, mean, Table 139): 0.67
- Hepatocellular ballooning (0-2) (mean, Table 133): 0.33
- Lobular Inflammation (0-3) (mean, Table 133): 1.50
- NSAH (sum) (mean, Table 133): 2.17
- Steatosis (0-3) (mean, Table 133): 0.33
- Glu [9]: 269.17 mg/dL
- T-chol [9]: 156 mg/dL
- TG [9]: 88.3 mg/dL
- Absolute Organ Weight, Total Fat (sum of the three fat pads (epididymal, retroperitoneal, perirenal), in g (unit assumed)): 2.952
- Total Fat (G1 = 800 mg/kg orally twice a day): 2.82
- Total Fat (G1 = 1,100 mg/kg orally twice a day): 2.82
- Total Fat (G1 = 1,200 mg/kg orally twice a day): 2.82
- Total Weight (week 0, G1 = 800 mg/kg orally twice a day, in g (unit assumed)): 40.22
- Total Weight (week 0, G1 = 1,100 mg/kg orally twice a day, in g (unit assumed)): 40.22
- Total Body Weight (week 0, G1 = 1,200 mg/kg orally twice a day, in g (unit assumed)): 40.22
- Total Weight (week 0, ORI group, mean, Table 134, in g (unit assumed)): 38.61
- Total Body Weight (week 0, ORI group, mean, Table 145, in g (unit assumed)): 40.22
- Weight Gain (week 1, G1 = 800 mg/kg orally twice a day): −2.24
- Total Weight (week 1, G1 = 800 mg/kg orally twice a day, in g (unit assumed)): 37.98
- Weight Gain (week 1, G1 = 1,100 mg/kg orally twice a day): −2.24
- Total Weight (week 1, G1 = 1,100 mg/kg orally twice a day, in g (unit assumed)): 37.98
- Weight Gain (week 1, G1 = 1,200 mg/kg orally twice a day): −2.24
- Total Body Weight (week 1, G1 = 1,200 mg/kg orally twice a day, in g (unit assumed)): 37.98
- Total Weight (week 1, ORI group, mean, Table 134, in g (unit assumed)): 33.17
- Weight Gain (week 1, ORI group, mean, Table 135): −5.43
- Total Body Weight (week 1, ORI group, mean, Table 145, in g (unit assumed)): 37.98
- Weight Gain (week 1, ORI group, mean, Table 146): −2.24
- Weight Gain (week 2, G1 = 800 mg/kg orally twice a day): −6.14
